Drawing on patent US12448433B2, “Human ApoB100 epitopes, methods and uses for modulating inflammatory responses, and treating adverse cardiovascular events, disease and atherosclerosis” (LA JOLLA INSTITUTE FOR ALLERGY AND IMMUNOLOGY, priority 2015, dated 2025), this text covers IC50 for one molecule.

One assay deals with DPB1*02:01. Put plainly: Peptide binding to HLA-DP allele, competition assay. Also noted: species or system human. In a few lines:
(§1)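 Affinity of peptides for each HLA class II allele measured separately by competition binding; 30 peptides screened across 26 HLA alleles.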

In a further assay the target is DPB1*04:02. The assay is described as above. Also noted: species or system human. In a few lines: as §1
The next assay concerns the target DPB1*05:01. The description is as above. Also noted: species or system human. The gist of the method: as §1
In a further assay the target is DPB1*14:01. The assay is described as above. Also noted: species or system human. In a few lines:
as §1

The next assay addresses T1, DPB1*04:01 (Homo sapiens, UniProt P04440).
T1 sequence (P04440 30-258): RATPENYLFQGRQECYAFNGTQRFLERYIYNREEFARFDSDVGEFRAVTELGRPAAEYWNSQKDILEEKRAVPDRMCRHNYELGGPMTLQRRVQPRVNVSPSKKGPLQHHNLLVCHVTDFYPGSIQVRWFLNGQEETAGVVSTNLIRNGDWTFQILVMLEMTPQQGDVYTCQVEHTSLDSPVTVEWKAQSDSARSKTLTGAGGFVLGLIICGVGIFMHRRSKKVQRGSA
T1 sequence (P20036 29-260 partner): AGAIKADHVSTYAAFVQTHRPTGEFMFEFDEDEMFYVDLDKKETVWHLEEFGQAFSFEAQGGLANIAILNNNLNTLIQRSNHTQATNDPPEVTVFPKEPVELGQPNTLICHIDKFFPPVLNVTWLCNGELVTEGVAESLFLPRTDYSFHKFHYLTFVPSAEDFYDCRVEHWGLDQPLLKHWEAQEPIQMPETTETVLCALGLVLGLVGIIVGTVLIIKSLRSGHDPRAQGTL
The description is as above. In a few lines: as §1

The next assay deals with DRB1*04:05 (Homo sapiens, UniProt P01903+P01911, A100R/A169T/D86S/F76Y/I96L/K127E/L162R/M171V/N62H/P40V/Q125Y/R42H/S133A/S149N/S66Y/V115G/V209L/W38E). Put plainly: Peptide binding to HLA-DR allele, competition assay. The text has this: (§2) Peptide binding to MHC-II requires anchor residues in certain positions and thus can be predicted using computer algorithms. Affinity can be measured experimentally using a competition assay (1). Both are excellent screening tools. However, affinity must be measured separately for each MHC-II allele. Humans express molecules encoded in four different MHC-II loci, denominated HLA-DRB1, DRB3/4/5, DP and DQ. Allelic variation is large, and most people are heterozygous at each locus, thus expressing up to 8 relevant MHC-II alleles. CD4 T cell responses strictly require that the antigenic peptide binds to the relevant MHC-II.
(§3) To identify peptides that could potentially be used in human patients, 30 peptides were screened for binding to 26 HLA alleles by competition assay.

The target of a further assay is DRB1*09:01 (Homo sapiens, UniProt P01903+P01911, A100R/A103E/D57H/D86V/F55Y/F60I/F76Y/I96F/K127E/L162R/M171V/P40D/Q125H/Q99R/R33Q/R42F/S133A/S66N/T210M/V115G/W38K/Y107V/Y59G/Y89S). The description is as above.
Text: as §2, §3

By IC50 is commonly meant the concentration needed to halve the response being measured. Turning to `CC[C@H](C)[C@H](NC(=O)[C@H](C)NC(=O)[C@H](CCCCN)NC(=O)[C@H](Cc1ccccc1)NC(=O)[C@@H](NC(=O)[C@H](CCC(=O)O)NC(=O)[C@@H](N)CCC(N)=O)C(C)C)C(=O)N[C@@H](CCC(N)=O)C(=O)N[C@@H](CO)C(=O)N[C@@H](CC(C)C)C(=O)N[C@@H](CCCCN)C(=O)N[C@H](C(=O)N[C@H](C(=O)N[C@@H](CCC(=O)O)C(=O)N[C@H](C(=O)O)C(C)C)[C@@H](C)O)[C@@H](C)O` [Peptide 3563.0024], the half-inhibitory concentration (IC50) came to 0.2 µM at DPB1*02:01; 0.093 µM at DPB1*04:02; 0.369 µM on DPB1*05:01; 1.78 µM on DPB1*14:01; 0.016 µM on DPB1*04:01; 0.018 µM at DRB1*04:05. The 50% inhibitory concentration (IC50) on DRB1*09:01 stood at 0.046 µM.
